Assay results published in patent EP2487185A1, “Hexapeptide with improved activity in the repair of cellular DNA of dermal cells” (Clinuvel Pharmaceuticals Limited, priority 2011, dated 2012).
Non-standard residues stand in square brackets, D forms with d. Nle = CCCC[C@H](N)C(=O)O

What was measured:
melanocyte strain 1505b [1] = assay: Tyrosinase activity as a measure of stability / residual effect; assay type: cell-based, human; conditions: for Tyrosinase activity, column 1 / Tyrosinase activity, column 2 / Tyrosinase activity, column 3 / Tyrosinase activity, Mean: STRAIN 1505b; for Tyrosinase activity, column 1: Table 6 (Fig. 8), after 3 days of treatment; for Tyrosinase activity, column 1 / Tyrosinase activity, column 2 / Tyrosinase activity, column 3: 1nM; for Tyrosinase activity, column 2 / Tyrosinase activity, column 3 / Tyrosinase activity, Mean: Table 6; for Tyrosinase activity, column 2: column 2, not defined; for Tyrosinase activity, column 3: column 3, apparently 4 days after peptide removal; for Tyrosinase activity, Mean: mean of columns 1-3
Procedure: To determine the residual effect of CUV9900, as compared to NDP-MSH and α-MSH, on tyrosinase activity, melanocytes were treated with either CUV9900 or NDP-MSH at the concentrations previously described for a total of 3 days. Tyrosinase activity was measured at the end of the 3 days of treatment, and 2 and 4 days after maintenance of the melanocytes in the complete absence of any treatment.
With continued reference to Figs. 7, 8 and 9, to determine the stability of CUV9900 versus that of NDP-MSH and α-MSH, melanocytes were treated with 1 nM of each peptide, namely with CUV9900, NDP-MSH and α-MSH, for a total of 6 days, or with 1 nM peptides that were incubated for 5 hours at 37 °C prior to addition to the cultures, every other day, for a total of 6 days. Tyrosinase activity was measured at the end of treatment. In the experiments, cell number represents the mean percent of control of 3 determinations/ group ±SE, and tyrosinase activity data represent the mean percent of control of 6 determinations ±S.E. It should be noted that for the sake of reproducibility the experiment of strain 1513c of Fig. 9 was performed once more 6 months later than the experiment of Fig. 7.
Melanocytes were treated for 3 days with the designated concentrations of CUV9900, NDP-MSH, or MSH, then maintained in absence of peptides for 4 days. Tyrosinase activity was determined 3 days after treatment.

melanocyte strain 1505b [2] = assay: Cell proliferation as a measure of stability; assay type: cell-based, human; conditions: for Cell proliferation, column 2: Table 3, 1nM, column 2, not defined; for Cell proliferation, Mean: Table 3, mean of columns 1-3
melanocytes strain 1513c = assay: cAMP levels (125I radioimmunoassay), dose-response; assay type: cell-based, human; conditions: 45 min, 0.1 mM IBMX; for maximal level of cAMP: at 10 nM
Procedure: Dose-response experiments were carried out on three melanocytic strains, namely strains 1513c, 1505b and 105c melanocytes were treated with 1 pM-10 nM CUV9900 or NDP-MSH, or with 0.1-10 nM MSH for 45 minutes in the presence of 0.1 mM isobutyl methylxanthine (IBMX). The results obtained from strain 1513c are shown in Fig. 3, the results obtained from strain 1505b are shown in Fig. 5a and the results obtained from strain 105c are shown in Fig. 5b. The strains 1505b and 1513c were obtained from the same human adult while the strain 105c was obtained from another human adult. Cyclic AMP is the second messenger for the melanocortin-1 receptor, and assessment is usually performed indicating cellular activity reflective of melanogenesis. Cyclic AMP levels were determined using ^125I-labeled radioimmunoassay kit (Perkin Elmer, Waltham, MA), in human melanocytes that were treated with 0 (control), 0.1-10.0 nM α-MSH, or 0.001-10 nM NDP-MSH or 0.001-10.0 nM CUV 9900 for 45 min. in the presence of 0.1 mM IBMX, a phosphodiesterase inhibitor to prevent cAMP degradation. Triplicate wells were included in each group, and duplicate samples from each well were assayed for cAMP levels. Each data point is the mean percent of control of 6 determinations/group ±S.E.

human melanocytes = assay: DNA damage as measured by 8-oxo-dG (FITC-conjugated 8-oxo-dG antibody immunofluorescence); assay type: cell-based; conditions: for 8-oxo-dG, Arbitrary units: 37 Celsius, mean fluorescence intensity
Source text: DNA damage of cultured melanocytes following UV irradiation leads to consistent levels of photoproducts such as 8-oxo-dG. It is well established in the art (dermal carcinogenesis) that 8-oxodG is a major form of UV induced oxidative DNA damage, which results from the generation of reactive oxygen species (ROS). The induction of 8-oxodG by 8-oxo-dGTP can be inhibited by pyrophosphohydrolases (8-[…]) that convert it to 8-oxo-dGMP. To elucidate the involvement of 8-oxo-[…] in carcinogenesis, an assay of the 8-oxo-[…] activity was used (Sigma Chemical Co. (USA) as well as a conjugated 8-oxo-dG antibodies (OxoDNA Assay Kit; Calbiochem/EMD Biosciences). Melanocytes were plated onto coverslips, and treated 48 h thereafter for 4 days prior to, and immediately after irradiation with 0 or 105 mJ/cm^2 UV, 0.1-10.0 nM α-MSH, with 0 (control) or 0.1-10.0 nM α-MSH, or 0.001-10 nM NDP-MSH or 0.001-10.0 nM CUV 9900. Two hours after UV exposure, cells were fixated with 4% paraformaldehyde in PBS, hydrated in increasing concentrations of cold methanol, and permeabilized in 99% methanol for 30 min at 4 °C. Melanocytes were incubated in blocking solution at 37 °C for 1 h and then with FITC-conjugated 8-oxo-dG antibody, or mouse IgG as a negative control, at 37 °C for 1 h. The IgG controls were then incubated with FITC-conjugated anti-mouse antibody. Immunofluorescence was detected using a microscope with FITC filters. Data were expressed as the mean fluorescence intensity ±S.E., determined using the densitometry values from 6-8 randomly obtained images, using the computer assisted program Alpha Inotech Imaging System and the AlphaEase FC StandAlone Software.

melanocytic strain 1505b = assay: UV-induced generation of hydrogen peroxide (luminol luminescence); assay type: cell-based, human; conditions: for UV-induced hydrogen peroxide generation: strain 1505b, 105 mJ/cm^2 UV, 0, 30 and 45 minutes after UV
Source text: With reference to Figs. 10 and 11, melanocytes were irradiated with a bank of FS 20 lamps, with 75% emission in the UVB, and 25% emission in the UVA spectra, with peak emission at 313 nm wavelength. Any emission of UVC rays from the UV source (FS 20 lamps) was blocked by Kodacel filter. Prior to irradiation, the culture medium was replaced by PBS, which was removed after UV exposure, and fresh medium added.
Melanocytes were irradiated with 105 mJ/cm^2 UV, and treated immediately while in PBS with 0, 1 nM α-MSH or 1 nM CUV9900. Generation of hydrogen peroxide, representative of reactive oxygen species (ROS), was determined by measuring the luminescence of luminol at 0, 30, and 45 min after UV exposure. Triplicate dishes were included in each group, and duplicate samples from each dish were used for measurement of hydrogen peroxide at each time point. Each data point represents the mean of 6 determinations/group ±S.E.

[3] = 75%UVB 25% UVA, 105 mJ/cm^2, 2 h after UV

Ac-Nle-Glu His-D-Phe-Arg-Trp-NH2 (Ac-[Nle]EH[dF]RW-NH2; SMILES CCCC[C@H](NC(C)=O)C(=O)N[C@@H](CCC(=O)O)C(=O)N[C@@H](Cc1c[nH]cn1)C(=O)N[C@H](Cc1ccccc1)C(=O)N[C@@H](CCCNC(=N)N)C(=O)N[C@@H](Cc1c[nH]c2ccccc12)C(N)=O) [CUV9900, hexapeptide, alpha-MSH analogue]
Tyrosinase activity, column 1 (melanocyte strain 1505b [1]): 259 % of control
Tyrosinase activity, column 2 (melanocyte strain 1505b [1]): 199 % of control
Tyrosinase activity, column 3 (melanocyte strain 1505b [1]): 126 % of control
Tyrosinase activity, Mean (melanocyte strain 1505b [1]): 194.7 % of control
effect on tyrosinase activity after 3 days of treatment (melanocyte strain 1505b [1]; strain 1505b, 0.1 nM CUV9900, 1 nM MSH): 259 % of control
residual effects 4 days after peptide removal, comparison with MSH (melanocyte strain 1505b [1]; strain 1505b, 0.1 nM CUV9900 vs 1 nM MSH): equal
Cell proliferation, column 2 (melanocyte strain 1505b [2]): 120 % of control
Cell proliferation, Mean (melanocyte strain 1505b [2]): 115.7 % of control
cAMP, potency comparison (melanocytes strain 1513c; at 0.1 nM): more potent than NDP-MSH
maximal level of cAMP (melanocytes strain 1513c): higher maximal level of cAMP than MSH
less damage than UV alone (8-oxo-dG) (human melanocytes): 120%
8-oxo-dG, Arbitrary units (human melanocytes; [3]): 38 a.u.
8-oxo-dG, Arbitrary units (human melanocytes; Source None (no UV irradiation)): 30 a.u.
reducing the generation of hydrogen peroxide, comparison to NDP-MSH and MSH (melanocytic strain 1505b; at 45 minutes after UV): most effective at reducing the generation of hydrogen peroxide
hydrogen peroxide generation, comparison (melanocytic strain 1505b; at 45 minutes after irradiation, 1 nM, strain not given): lower hydrogen peroxide generation in comparison with both NDP-MSH and MSH
UV-induced hydrogen peroxide generation (melanocytic strain 1505b; 1 nM): significant reduction of UV-induced hydrogen peroxide generation

Ac-Ser-Tyr-Ser-Nle-Glu-His-D-Phe-Arg-Trp-Gly-Lys-Pro-Val-NH2 [NDP-MSH, reference compound]
Tyrosinase activity, column 1 (melanocyte strain 1505b [1]): 175 % of control
Tyrosinase activity, column 2 (melanocyte strain 1505b [1]): 155 % of control
Tyrosinase activity, column 3 (melanocyte strain 1505b [1]): 115 % of control
Tyrosinase activity, Mean (melanocyte strain 1505b [1]): 148.3 % of control
Cell proliferation, column 2 (melanocyte strain 1505b [2]): 105 % of control
Cell proliferation, Mean (melanocyte strain 1505b [2]): 105.0 % of control
maximal level of cAMP (melanocytes strain 1513c): higher maximal level of cAMP than MSH
8-oxo-dG, Arbitrary units (human melanocytes; [3]): 39-40 a.u.
UV-induced hydrogen peroxide generation (melanocytic strain 1505b; 1 nM): significant reduction of UV-induced hydrogen peroxide generation
